From patent publication US4251520A, “Glucofuranose derivatives” (priority 1976, dated 1981)

Tests used:
[1] = Analgesic activity, protection from writhing; assay type: in vivo, mouse; conditions: po; 500 mg/kg p.o. mouse; read-out: Analgesic activity, protection from writhing %
Method: (§1) Pharmacological tests were carried out to evaluate the acute toxicity, anti-inflammatory and capillary permeability action, antipyretic, analgesic and anti-spasmodic in vitro action.

capillary permeability = experiment: Capillary permeability test; conditions: 500 mg/kg p.o. mouse
Method: as §1

[2] = test system: edema induced by formalin; experiment: Anti-inflammatory activity, formalin-induced edema; assay type: in vivo, rat; conditions: po; 500 mg/kg p.o. rat; read-out: % inhibition of edema induced by formalin
Method: as §1

spasm by acetylcholine = experiment: Antispasmodic activity in vitro, spasm by acetylcholine
Method: as §1

[3] = test system: edema induced by carrageenan; experiment: Anti-inflammatory activity, carrageenin-induced oedema; assay type: in vivo, rat; conditions: po; 500 mg/kg p.o. rat; read-out: % inhibition of edema induced by carrageenan
From the text: Beginning, therefore, with D-glucose, we have prepared 1,2:5,6-di-O-isopropylidene-α-D-glucofuranose (II): [drawing 2] as well as 1,2-O-isopropylidene-α-D-glucofuranose and 1,2-O-isopropylidene-3,5,6-tri-O-benzyl-α-D-glucofuranose (1; Glen W. L., Myers G. S., Grant G. A., J. Chem. Soc., 2568/1951; (2) Meyer A. S., Reichstein T., Helv. Chim. Acta, 29, 139/1946; (3) Huber G., Rossi A., Helv. Chim. Acta, 51, 1185/1968) and have compared these compounds with (I) for anti-inflammatory activity against carrageenin-induced oedema (500 mg/kg, p.o. in rats).

edema induced by dextran = experiment: Anti-inflammatory activity, dextran-induced edema; assay type: in vivo, rat; conditions: po; 500 mg/kg p.o. rat; read-out: % inhibition of edema induced by dextran
Method: as §1

[4] = Analgesic activity, hot plate test; assay type: in vivo, mouse; conditions: po; 500 mg/kg p.o. mouse; hot plate test; read-out: Analgesic activity, increase of reaction time %
Method: as §1

spasm by histamine = experiment: Antispasmodic activity in vitro, spasm by histamine
Method: as §1

in vivo = conditions: mouse, in vivo, po
Antipyretic activity = assay type: in vivo, rat; conditions: for Antipyretic activity (potency in comparison with aspirin = 100): 400 mg/kg p.o. rat; for Antipyretic action (in words): rat, in vivo
Method: as §1

granuloma = experiment: Granuloma cotton pellet test; conditions: Rattus norvegicus, po, read-out: % inhibition of granuloma
Method: as §1

Structure (SMILES) | inhibition in vivo at 500 mg/kg [1] [%] | Capillary permeability, decrease % (capillary permeability) [%] | inhibition in vivo at 500 mg/kg [2] [%] | Antispasmodic activity in vitro, ED50, inhib. of spasm by acetylcholine (spasm by acetylcholine) [mg/L] | inhibition in vivo at 500 mg/kg [3] [%] | inhibition in vivo at 500 mg/kg (edema induced by dextran) [%] | change in vivo at 500 mg/kg [4] [%] | Antispasmodic activity in vitro, ED50, inhib. of spasm by histamine (spasm by histamine) [mg/L] | LD50 (in vivo) [mg/kg] | Antipyretic activity (potency in comparison with aspirin = 100) (Antipyretic activity) [%] | Inhibition of spasms induced by histamine (in words) (spasm by histamine) | inhibition in vivo at 200 mg/kg (granuloma) [%] | Antipyretic action (in words) (Antipyretic activity)
CCCOC1C(C2COC(C)(C)O2)OC2OC(C)(C)OC21 (centres unmarked) [V] | 20 | 53 | 0 | > 100 | 28 | 0 | 10 | > 100 | 1000 | 37 |  |  | 
CCCN(CCC)CCOC1C(C2COC(C)(C)O2)OC2OC(C)(C)OC21 (centres unmarked) [XVI] | 0 |  | 24 | 100 | 23 | 41 | 0 | 12 | 750 | 29 | inhibited spasms induced by histamine at relatively low concentrations | 0 | 
CC1(C)OCC(C2OC3OC(C)(C)OC3C2OCCN2CCCCC2)O1 (centres unmarked) [XIX] |  | 17 | 28 |  | 64 | 56 |  |  | > 1000 | 55 |  |  | retained
CC1(C)OCC(C2OC3OC(C)(C)OC3C2OCC(=O)O)O1 [XIII, 3-Carboxymethyl-1,2:5,6-di-O-isopropylidene-α-D-glucofuranose] | 0 | 14 | 18 | > 100 | 10 | 4 | 0 | > 100 | > 4000 | 5 |  |  | 
CC1(C)OCC(C2OC3OC(C)(C)OC3C2OCCN2CCCC2)O1 (centres unmarked) [XVIII] | 0 | 50 | 38 | > 100 | 68 | 64 | 10 | 100 | 1500 | 0 |  | 0 | 
CCOC1C(C2COC(C)(C)O2)OC2OC(C)(C)OC21 (centres unmarked) [IV] | 0 | 42 | 33 | > 100 | 37 | 14 | 30 | 150 | 2000 | 31 |  |  | 
CC1(C)OCC(C2OC3OC(C)(C)OC3C2OCCN(Cc2ccccc2)Cc2ccccc2)O1 (centres unmarked) [XXI] | 60 |  | 19 |  | 29 | 17 | 0 |  | > 2000 | 25 |  |  | 
CCCCOC1C(C2COC(C)(C)O2)OC2OC(C)(C)OC21 (centres unmarked) [VI] | 0 | 57 | 24 | > 100 | 33 | 13 | 40 | > 100 | 3000 | 51 |  |  | retained
